In patent US20070197509A1, “Compositions and methods for modulating gated ion channels” (PainCeptor Pharma Corporation, priority 2005, published 2007):

Assays:
[1] = tested on: T1, hASIC3 (h3) and/or hASIC1a (h1a); assay: FlexStation/FLIPR assay, channel not marked in the cell; assay type: cell-based, human; settings: Table H, cells without channel mark; HEK293; read-out: EC50 (μM) Flex/FLIPR
T1 construct: EC50 (μM) in one experiment; HEK293
Description: (§1) The MES-induced peak calcium response (or change in membrane potential), in the presence of test substance, is expressed relative to the MES response alone. Test substances that block the MES-induced calcium response (or change in membrane potential) are re-tested in triplicates. Confirmed hits are picked for further characterization by performing full dose-response curves to determine potency of each hit compound as represented by the IC50 values (i.e., the concentration of the test substance which inhibits 50% of the MES-induced calcium and/or membrane potentiation response; see, for example, FIG. 1).
(§2) The data shown in Table H was acquired using the FlexStation assay described in Example 1 on HEK293 cells expressing hASIC3 (h3) and/or hASIC1a (h1a).

[2] = biological target: T2, hASIC1a (Homo sapiens, UniProt P78348); assay: Two-electrode voltage clamp in Xenopus laevis oocytes expressing hASIC1a (OpusExpress); assay type: cell-based; design: expressed in transfected cells; host or cells: Xenopus laevis oocytes, nuclear microinjection of cDNA (e.g. in pCDNA3)
T2 sequence (P78348 1-528): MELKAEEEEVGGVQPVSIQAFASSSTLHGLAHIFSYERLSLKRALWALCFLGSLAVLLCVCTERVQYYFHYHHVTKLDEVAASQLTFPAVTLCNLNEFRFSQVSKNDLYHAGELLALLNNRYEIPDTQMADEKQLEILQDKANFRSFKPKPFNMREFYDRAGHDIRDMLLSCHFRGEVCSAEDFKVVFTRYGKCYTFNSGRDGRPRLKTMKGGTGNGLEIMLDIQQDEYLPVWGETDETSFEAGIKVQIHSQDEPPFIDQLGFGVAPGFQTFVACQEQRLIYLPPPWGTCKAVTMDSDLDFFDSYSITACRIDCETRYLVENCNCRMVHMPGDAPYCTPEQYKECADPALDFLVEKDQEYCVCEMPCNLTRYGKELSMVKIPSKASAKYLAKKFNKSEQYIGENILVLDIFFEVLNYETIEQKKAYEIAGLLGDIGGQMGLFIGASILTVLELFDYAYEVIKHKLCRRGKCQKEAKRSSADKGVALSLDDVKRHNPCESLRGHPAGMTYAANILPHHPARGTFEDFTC
Description: Two-electrode voltage clamp electrophysiological assays in Xenopus laevis oocytes expressing gated ion channels are performed as follows:
Oocytes are surgically removed from adult Xenopus laevis and treated for 2 h at room temperature with 1 mg/ml type I collagenase (Sigma) in Barth's solution under mild agitation. Selected oocytes at stage IV-V are defolliculated manually before nuclear microinjection of 2.5-5 ng of a suitable expression vector, such as pCDNA3, comprising the nucleotide sequence encoding a gated ion channel subunit protein. In such an experiment, the oocytes express homomultimeric proton-gated ion channels on their surface. In an alternate experiment, one, two, three or more vectors comprising the coding sequences for distinct gated ion channel subunits are co-injected in the oocyte nuclei. In the latter case, oocytes express heteromultimeric proton-gated ion channels. […] Once impaled with the microelectrodes, oocytes are continuously superfused at 10-12 ml/min with a modified Ringer's solution containing 97 mM NaCl, 2 mM KCl, 1.8 mM CaCl2, and 10 mM HEPES brought to pH 7.4 with NaOH (Control Ringer). Test Ringer solution is prepared by replacing HEPES with MES and adjusting the pH to the desired acidic value. Compounds of the present invention are prepared in both the Control and Test Ringer solutions and applied to oocytes at room temperature through a computer-controlled switching valve system. […] Similarly, recordings can also be acquired in an automated multichannel oocytes system as the OpusExpress™ (Molecular Devices, Sunnyvale, Calif., USA).
Recordings were acquired from oocytes expressing homomeric hASIC1a using a two-electrode voltage-clamp configuration procedure as described herein.

[3] = biological target: T2, hASIC1a; assay: Whole-cell patch clamp of acid-induced currents in cells transfected with hASIC1a; assay type: cell-based; design: expressed in transfected cells; settings: for IC50 (μM) Patch Clamp (h1a): Table H
Description: Another example of an in vitro assessment method consists of using mammalian heterologous expression systems, which are known to those skilled in the art, and include a variety of mammalian cell lines such as COS, HEK, e.g., HEK293 and/or CHO, cells. Cell lines are transfected with gated ion channel(s) and used to perform electrophysiology as follows:
All experiments are performed at room temperature (20-25° C.) in voltage clamp using conventional whole cell patch clamp methods (Neher, E., et al. (1978) Pfluegers Arch 375:219-228).
The amplifier used is the EPC-9 (HEKA-electronics, Lambrect, Germany) run by a Macintosh G3 computer via an ITC-16 interface. Experimental conditions are set with the Pulse-software accompanying the amplifier. Data is low pass filtered and sampled directly to hard-disk at a rate of 3 times the cut-off frequency.
Pipettes are pulled from borosilicate glass using a horizontal electrode puller (Zeitz-lnstrumente, Augsburg, Germany). The pipette resistances are 2-3 MOhms in the salt solutions used in these experiments. The pipette electrode is a chloridized silver wire, and the reference is a silver chloride pellet electrode (In Vivo Metric, Healdsburg, USA) fixed to the experimental chamber. The electrodes are zeroed with the open pipette in the bath just prior to sealing.
Coverslips with the cells are transferred to a 15 μl experimental chamber mounted on the stage of an inverted microscope (IMT-2, Olympus) supplied with Nomarski optics. Cells are continuously superfused with extracellular saline at a rate of 2.5 ml/min. After giga-seal formation, the whole cell configuration is attained by suction. The cells are held at a holding voltage of −60 mV and at the start of each experiment the current is continuously measured for 45 s to ensure a stable baseline. Solutions of low pH (<7) are delivered to the chamber through a custom-made gravity-driven flowpipe, the tip of which is placed approximately 50 μm from the cell. Application is triggered when the tubing connected to the flowpipe is compressed by a valve controlled by the Pulse-software. Initially, low pH (in general, pH 6.5) is applied for 5 s every 60 s. The sample interval during application is 550 μs. After stable responses are obtained, the extracellular saline as well as the low-pH solution are switched to solutions containing the compound to be tested. The compound is present until responses of repeatable amplitude are achieved. Current amplitudes are measured at the peak of the responses, and effect of the compounds is calculated as the amplitude at compound equilibrium divided by the amplitude of the current evoked by the pulse just before the compound was included.
The following salt solutions are used: extracellular solution (mM): NaCl (140), KCl (4), CaCl2 (2), MgCl2 (4), HEPES (10, pH 7.4); intracellular solution (mM): KCl (120), KOH (31), MgCl2 (1.785), EGTA (10), HEPES (10, pH 7.2). In general, compounds for testing are dissolved in 50% DMSO at 500 fold the highest concentration used.
CHO cells were transfected with hASIC1a and used to perform full dose-inhibition curves with Compound B, and Compound R. Results are expressed as a fraction of the control peak current obtained in the absence of the test substance.

[4] = biological target: T3, hASIC3 (Homo sapiens, UniProt Q9UHC3); assay: FlexStation assay on HEK293 cells expressing hASIC3; assay type: cell-based; design: expressed in transfected cells; host or cells: HEK293 cells; settings: FlexStation (Flex), Tables A-F; read-out: Biological Data (IC50 uM) h3 (Flex)
T3 sequence (Q9UHC3 1-531): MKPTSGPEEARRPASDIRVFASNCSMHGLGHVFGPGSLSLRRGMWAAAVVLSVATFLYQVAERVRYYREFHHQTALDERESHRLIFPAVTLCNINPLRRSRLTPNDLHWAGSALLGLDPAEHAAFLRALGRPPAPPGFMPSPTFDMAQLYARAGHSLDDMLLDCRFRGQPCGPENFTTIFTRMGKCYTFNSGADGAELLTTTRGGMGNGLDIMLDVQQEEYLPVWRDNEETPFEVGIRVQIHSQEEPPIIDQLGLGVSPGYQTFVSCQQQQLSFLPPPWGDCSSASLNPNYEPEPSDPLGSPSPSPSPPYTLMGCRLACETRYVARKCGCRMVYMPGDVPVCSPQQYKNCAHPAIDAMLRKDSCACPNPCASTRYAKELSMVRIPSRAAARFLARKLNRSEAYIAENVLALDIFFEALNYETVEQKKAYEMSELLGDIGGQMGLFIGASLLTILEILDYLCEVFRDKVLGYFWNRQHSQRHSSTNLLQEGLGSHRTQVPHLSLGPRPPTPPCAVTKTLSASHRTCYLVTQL
Description: A vial of FMP dye (Molecular Devices) is resuspended in 10.5 ml of assay buffer (48.3 mM NaCl, 93 mM NMDG, 5 mM KCl, 5 mM CaCl2, 1 mM MgCl2, 10 mM HEPES, pH 7.4). The culture medium is aspirated from the wells, and 100 μl of the FMP loading solution is added to each well. The cells are incubated at 37° C. for 30 min.
After the loading period, the loading solution is left on the cells and the membrane potential-induced fluorescence is measured in FLIPR™ or FlexStation™ (Molecular Devices, USA), or any other suitable equipment known to the skilled in the art.
For cells co-expressing ASIC1a and ASIC3 channels (e.g. HEK293 cells), membrane potential dye (FMP dye) is used and the FlexStation settings are as above.
as §1, §2

[5] = OpusExpress (OX), Tables A-F, h1a printed in some cells only, read-out: Biological Data (IC50 uM) h1a (OX)
[6] = Table H, read-out: IC50 (μM) Opus Express (h1a)
[7] = patch clamp (PC), Tables A-F, h1a printed in some cells only
[8] = OpusExpress (OX), Tables A-F, h1a printed in some cells only

SMILES	EC50 [1] [µM]	IC50 [2, 6] [µM]	IC50 [4] [µM]	also measured
Cc1cc(N2CCN(CCc3ccccc3)CC2)c2ccccc2n1 [Compound D, 2-methyl-4-(4-phenethyl-piperazin-1-yl)-quinoline]	< 10	> 50		IC50 [2, 5]: > 50 µM
COc1ccc(-c2cc(C(=O)N3CCN(C)CC3)c3ccccc3n2)cc1OC [Compound G, [2-(3,4-dimethoxy-phenyl)-quinolin-4-yl]-(4-methyl-piperazin-1-yl)-methanone]	> 20			
COc1ccc(-c2cc(C(=O)N3CCN(Cc4ccc5c(c4)OCO5)CC3)c3cc(Cl)ccc3n2)cc1 [Compound 44, (4-benzo[1,3]dioxol-5-ylmethyl-piperazin-1-yl)-[6-chloro-2-(4-methoxy-phenyl)-quinolin-4-yl]-methanone]				Biological Data (IC50 uM) h1a (PC) [3, 7]: Not Active (OX, PC); Biological Data (IC50 uM) h1a (OX) [2, 8]: Not Active (OX, PC)
COc1ccc(N2CCN(C(=O)c3cc(-c4ccc(OC)c(OC)c4)nc4ccccc34)CC2)cc1 [Compound 41, [2-(3,4-dimethoxy-phenyl)-quinolin-4-yl]-[4-(4-methoxy-phenyl)-piperazin-1-yl]-methanone]				Biological Data (IC50 uM) h1a (PC) [3, 7]: Not Active (OX, PC); Biological Data (IC50 uM) h1a (OX) [2, 8]: Not Active (OX, PC)
Cc1cc(N2CCN(CC3CCCCC3)CC2)c2ccccc2n1 [Compound O, 4-(4-cyclohexylmethyl-piperazin-1-yl)-2-methyl-quinoline]	> 20	23.9	5 to 15	IC50 [2, 5]: 20 to 30 µM
Cc1ccc(-c2nc(Nc3ccc(C(=O)O)cc3)c3ccccc3n2)cc1 [Compound K, 4-(2-p-tolyl-quinazolin-4-ylamino)-benzoic acid]	> 10			IC50 (μM) Patch Clamp (h1a) [3]: Inactive; IC50 (μM) Opus Express (h1a) ([2]; Table H): Inactive

More lines, main results first:

EC50 [1] [µM]	IC50 [2, 6] [µM]	IC50 [4] [µM]	SMILES	also measured
		20 to 30	Cc1ccc(-c2nc(Nc3ccc(C(=O)O)cc3)c3cc(Cl)ccc3n2)cc1 [Compound 107, 4-(6-chloro-2-p-tolyl-quinazolin-4-ylamino)-benzoic acid]	IC50 ([3]; patch clamp (PC), Tables A-F, h1a printed in some cells only, read-out: Biological Data (IC50 uM) h1a (PC)): > 30 µM
< 10			Cc1cc(N2CCCN(C)CC2)nc2cc(Cl)ccc12 [Compound F, 7-chloro-4-methyl-2-(4-methyl-[1,4]diazepan-1-yl)-quinoline]	IC50 (μM) Patch Clamp (h1a) [3]: Inactive
< 10	> 50	10 to 20	COc1ccc(CN2CCN(c3cc(C)nc4ccccc34)CC2)cc1 [Compound Q, 4-[4-(4-methoxy-benzyl)-piperazin-1-yl]-2-methyl-quinoline]	
